According to publication PMC6253949, “The Inhibitory Action of Kohamaic Acid A Derivatives on Mammalian DNA Polymerase β” (Molecules, 2008):

Columns and labels:
Human DNA polymerase γ = biological target: T1, Human DNA polymerase γ (Homo sapiens, UniProt P54098); experiment: DNA polymerase assay, human pol γ; assay type: biochemical
T1 construct: His tag; made in house; host or cells: baculovirus expression system (insect cells)
T1 sequence (P54098 1-1239): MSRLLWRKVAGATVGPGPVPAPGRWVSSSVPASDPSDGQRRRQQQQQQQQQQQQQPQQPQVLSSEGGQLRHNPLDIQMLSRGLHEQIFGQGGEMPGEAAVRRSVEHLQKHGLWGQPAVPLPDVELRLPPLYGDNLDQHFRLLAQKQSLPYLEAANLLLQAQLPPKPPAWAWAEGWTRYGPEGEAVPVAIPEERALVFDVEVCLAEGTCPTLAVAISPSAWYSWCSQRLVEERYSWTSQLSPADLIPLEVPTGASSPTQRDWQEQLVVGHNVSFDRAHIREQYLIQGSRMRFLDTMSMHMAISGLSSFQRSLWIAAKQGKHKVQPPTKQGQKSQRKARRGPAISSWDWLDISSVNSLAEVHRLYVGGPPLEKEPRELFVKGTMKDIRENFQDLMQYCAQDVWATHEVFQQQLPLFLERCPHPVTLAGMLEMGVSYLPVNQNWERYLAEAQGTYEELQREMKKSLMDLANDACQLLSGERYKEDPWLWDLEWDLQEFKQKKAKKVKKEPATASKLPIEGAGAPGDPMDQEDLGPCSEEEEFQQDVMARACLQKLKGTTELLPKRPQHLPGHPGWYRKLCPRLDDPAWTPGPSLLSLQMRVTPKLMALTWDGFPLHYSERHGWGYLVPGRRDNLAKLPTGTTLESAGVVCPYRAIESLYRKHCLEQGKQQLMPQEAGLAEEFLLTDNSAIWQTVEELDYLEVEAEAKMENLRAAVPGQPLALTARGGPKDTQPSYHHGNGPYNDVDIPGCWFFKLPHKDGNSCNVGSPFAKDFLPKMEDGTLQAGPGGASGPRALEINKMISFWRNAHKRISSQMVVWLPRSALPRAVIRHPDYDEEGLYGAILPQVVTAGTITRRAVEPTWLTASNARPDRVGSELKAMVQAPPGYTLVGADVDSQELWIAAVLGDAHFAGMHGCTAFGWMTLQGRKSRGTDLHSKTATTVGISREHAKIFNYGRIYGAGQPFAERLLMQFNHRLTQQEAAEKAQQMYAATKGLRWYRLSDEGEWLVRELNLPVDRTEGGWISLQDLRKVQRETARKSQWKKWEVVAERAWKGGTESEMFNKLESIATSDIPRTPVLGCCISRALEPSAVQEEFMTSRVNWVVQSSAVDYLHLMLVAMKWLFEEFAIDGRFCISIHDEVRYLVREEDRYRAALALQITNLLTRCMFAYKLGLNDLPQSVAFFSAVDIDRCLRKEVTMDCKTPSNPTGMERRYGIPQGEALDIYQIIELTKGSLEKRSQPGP
Excerpt: Pol α was purified from calf thymus by immuno-affinity column chromatography as described by Tamai et al.. Recombinant rat pol β was purified from E. coli JMpβ5 as described by Date et al.. The human pol γ catalytic gene was cloned into pFastBac. Histidine-tagged enzyme was expressed using the BAC-TO-BAC HT Baculovirus Expression System according to the supplier's manual (LIFE TECHNOLOGIES, MD, USA) and purified using ProBoundresin (Invitrogen Japan, Tokyo, Japan). Human pols δ and ε were purified by the nuclear fractionation of human peripheral blood cancer cells (Molt-4) using the second subunit of pols δ and ε-conjugated affinity column chromatography, respectively. Recombinant human pols η and ι tagged with His6 at their C-terminal were expressed in SF9 insect cells using the baculovirus expression system, and were purified as described previously. A truncated form of pol κ (i.e., hDINB1DC) with 6 x His-tags attached at the C-terminal was overproduced using the BAC-to-BAC Baculovirus Expression System kit (GIBCO BRL, MD, USA) and purified as described previously. […]
For pols, poly(dA)/oligo(dT)12-18 (A/T = 2/1) and dTTP were used as the DNA template-primer and nucleotide (i.e., dNTP) substrate, respectively. […] Activity without the inhibitor was considered 100%, and the remaining activity at each concentration of the inhibitor was determined relative to this value. […]

Rat DNA polymerase β = biological target: T2, Rat DNA polymerase β (Rattus norvegicus, UniProt P06766); experiment: DNA polymerase assay, rat pol β; assay type: biochemical; settings: for Inhibitory mode: Lineweaver Burk plot
T2 construct: made in house; host or cells: E. coli JMpβ5
Excerpt: Pol α was purified from calf thymus by immuno-affinity column chromatography as described by Tamai et al.. Recombinant rat pol β was purified from E. coli JMpβ5 as described by Date et al.. The human pol γ catalytic gene was cloned into pFastBac. Histidine-tagged enzyme was expressed using the BAC-TO-BAC HT Baculovirus Expression System according to the supplier's manual (LIFE TECHNOLOGIES, MD, USA) and purified using ProBoundresin (Invitrogen Japan, Tokyo, Japan). Human pols δ and ε were purified by the nuclear fractionation of human peripheral blood cancer cells (Molt-4) using the second subunit of pols δ and ε-conjugated affinity column chromatography, respectively. Recombinant human pols η and ι tagged with His6 at their C-terminal were expressed in SF9 insect cells using the baculovirus expression system, and were purified as described previously. A truncated form of pol κ (i.e., hDINB1DC) with 6 x His-tags attached at the C-terminal was overproduced using the BAC-to-BAC Baculovirus Expression System kit (GIBCO BRL, MD, USA) and purified as described previously. Recombinant human His-pol λ was overexpressed and purified according to a method described previously. Fish pol δ was purified from the testis of cherry salmon (Oncorhynchus masou). Pol I (α-like) from a higher plant, cauliflower inflorescence, was purified according to the methods outlined by Sakaguchi et al.. The Klenow fragment of pol I from E. coli was purchased from Worthington Biochemical Corp. (Freehold, NJ, USA). Taq pol, T4 pol, T7 RNA polymerase and T4 polynucleotide kinase were purchased from Takara (Kyoto, Japan). Bovine pancreas deoxyribonuclease I (DNase I) was obtained from Stratagene Cloning Systems (La Jolla, CA, USA).
The reaction mixtures for pol α, pol β, fish pol δ, plant pol I (α-like) and prokaryotic pols were described previously, and those for pol γ, and pols δ and ε were as described by Umeda et al. and Ogawa et al., respectively. The reaction mixtures for pols η, ι and κ were the same as for pol α, and the reaction mixture for pol λ was the same as that for pol β.
For pols, poly(dA)/oligo(dT)12-18 (A/T = 2/1) and dTTP were used as the DNA template-primer and nucleotide (i.e., dNTP) substrate, respectively. KA-A analogues (i.e., compounds 1–12) were dissolved in distilled dimethyl sulfoxide (DMSO) at various concentrations and sonicated for 30 sec. Aliquots of 4 μL of sonicated samples were mixed with 16 μL of each enzyme (final amount 0.05 units) in 50 mM Tris-HCl (pH 7.5) containing 1 mM dithiothreitol, 50% glycerol and 0.1 mM EDTA, and kept at 0 °C for 10 min. These inhibitor-enzyme mixtures (8 μl) were added to 16 μL of each of the enzyme standard reaction mixtures, and incubation was carried out at 37 °C for 60 min, except for Taq pol, which was incubated at 74 °C for 60 min. Activity without the inhibitor was considered 100%, and the remaining activity at each concentration of the inhibitor was determined relative to this value. One unit of pol activity was defined as the amount of enzyme that catalyzed the incorporation of 1 nmol of dNTP (i.e., dTTP) into synthetic DNA template-primers in 60 min at 37 °C under the normal reaction conditions for each enzyme.

CC1=CC[C@H]2C(C)(C)CCC[C@]2(C)[C@H]1CCCCCCCCCCCCCCCCC(=O)O (relative stereo) [compound 11, (1S*,4aS*,8aS*)-17-(1,4,4a,5,6,7,8,8a-octahydro-2,5,5,8a-tetramethylnaphthalen-1-yl)heptadecanoic acid]
IC50 (Human DNA polymerase γ): 8.76 ± 0.44 µM | Relative activity of pol β (Rat DNA polymerase β; 10 μM compound 11): 15.5 ± 0.78% | Relative activity of pol β (Rat DNA polymerase β; 10 μM compound 11 + 50 μM poly (rC)): 15.2 ± 0.74% | Relative activity of pol β (Rat DNA polymerase β; 10 μM compound 11 + 200 μg/ml BSA): 15.9 ± 1.1% | Relative activity of pol β (Rat DNA polymerase β; 10 μM compound 11 + 0.05 % NP-40): 96.1 ± 7.6% | Relative activity of pol β (Rat DNA polymerase β; 10 μM compound 11 + 0.1 % NP-40): 100 ± 8.8% | Relative activity of pol β (Rat DNA polymerase β; 100 μM compound 11): 3.2 ± 0.16% | Relative activity of pol β (Rat DNA polymerase β; 100 μM compound 11 + 50 μM poly (rC)): 3.1 ± 0.15% | Relative activity of pol β (Rat DNA polymerase β; 100 μM compound 11 + 200 μg/ml BSA): 3.3 ± 0.19% | Relative activity of pol β (Rat DNA polymerase β; 100 μM compound 11 + 0.05 % NP-40): 62.5 ± 4.1% | Relative activity of pol β (Rat DNA polymerase β; 100 μM compound 11 + 0.1 % NP-40): 95.0 ± 7.6% | Inhibitory effect on pol β compared with KA-A (Rat DNA polymerase β; 10 and 100 μM of compound (Figure 2B)): strongest inhibitory effect | Ki (Rat DNA polymerase β; DNA template-primer poly(dA)/oligo(dT)12-18, Dixon plot): 1.96 µM | Vmax (Rat DNA polymerase β; DNA template-primer poly(dA)/oligo(dT)12-18, unchanged at 0-9 μM compound 11): 111 pmol/h | fold stronger pol β inhibitor than dideoxyTTP (Rat DNA polymerase β; comparison with dideoxyTTP): 4 fold | Ki (Rat DNA polymerase β; nucleotide substrate dTTP, Dixon plot): 2.36 µM | Vmax (Rat DNA polymerase β; nucleotide substrate dTTP, unchanged at 0-9 μM compound 11): 62.5 pmol/h | IC50 (Rat DNA polymerase β; poly(dA)/oligo(dT)12-18 and dTTP, 0.05 units enzyme): 5.5 ± 0.28 µM | Inhibitory mode (Rat DNA polymerase β; with respect to DNA template-primer): Competitive | Inhibitory mode (Rat DNA polymerase β; with respect to dNTP substrate): Competitive
